According to paper PMC12632398 (bioRxiv, 2025):
Non-standard residues stand in square brackets, D forms with d. No end group written: not given here. Dap = NC[C@H](N)C(=O)O

Key:
[1] = system: MCF-7 breast cancer cells; assay: Cell viability assay for MCF-7, CellTiter Glo 2.0; format: cell-based; conditions: MCF-7 cells, 48 h; positive control compared with MP23
[2] = system: HEK293 cells; assay: Cell viability, CellTiter Glo 2.0, HEK293; format: cell-based; conditions: 100 μM, 12 hours, CellTiter Glo 2.0, three independent experiments
[3] = system: HaloTag protein in cells; assay: Time-resolved CAPA; format: cell-based; conditions: 5μM MP1 and 1.62μM JQ1; reproduced in two independent experiments
[4] = system: Cells that express the HaloTag protein; conditions: CAPA; ratio of CP50 to that of JQ-1-Ct

fold higher (poorer) CP50 than JQ-1-Ct [4] [fold]	Compound	potency relative to MP23, MCF-7 viability [1]	effect on the viability of HEK293 cells [2]	kinetics of HaloTag protein alkylation, time-resolved CAPA [3]
	CC(C)[C@@H](CS(=O)(=O)C(C)C)N1C(=O)[C@@](C)(CC(=O)O)C[C@H](c2cccc(Cl)c2)[C@H]1c1ccc(Cl)cc1 [Navtemadlin]	about ten-fold more potent		
3.4	[Dap]AWFK-NH2 (also: sidechain bridge or staple (positions not given here)) [MP1-Ct]		no effect	relatively rapid
